In paper PMC10908623, “X-ray structure and characterization of a probiotic Lactobacillus rhamnosus Probio-M9 L-rhamnose isomerase” (Applied Microbiology and Biotechnology, 2024):

Experiments:
[1] = molecular target: T1, LrL-RhI (L. rhamnosus Probio-M9 L-rhamnose isomerase) (Lacticaseibacillus rhamnosus, UniProt A0A171J5T1); test: X-ray crystal structure of the complex (soaking), […] Å; assay type: binding; conditions: 30% (w/v) D-allulose soak; Mn2+; crystals at pH 6.5; catalytic site; also a surface site
T1 construct: gene rhaA; full length, 426 residues, 48707 Da; synthesized gene in pQE60, C-terminal His-tag kept; E. coli JM109; homotetramer
T1 sequence (A0A171J5T1 1-426): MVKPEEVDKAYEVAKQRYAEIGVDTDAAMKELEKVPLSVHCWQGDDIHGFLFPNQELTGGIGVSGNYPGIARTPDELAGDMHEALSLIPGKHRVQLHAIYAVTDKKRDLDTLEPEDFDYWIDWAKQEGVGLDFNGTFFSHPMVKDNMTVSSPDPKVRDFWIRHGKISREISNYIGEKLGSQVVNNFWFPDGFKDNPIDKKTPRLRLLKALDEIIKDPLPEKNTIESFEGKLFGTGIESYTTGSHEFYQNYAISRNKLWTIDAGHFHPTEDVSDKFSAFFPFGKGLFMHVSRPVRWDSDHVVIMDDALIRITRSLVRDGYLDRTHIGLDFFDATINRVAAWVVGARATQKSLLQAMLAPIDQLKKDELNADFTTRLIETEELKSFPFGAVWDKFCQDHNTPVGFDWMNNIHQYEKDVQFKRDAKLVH

[2] = molecular target: T1, LrL-RhI (L. rhamnosus Probio-M9 L-rhamnose isomerase); test: as above; assay type: binding; conditions: 30% (w/v) D-allose soak; Mn2+; crystals at pH 6.5; catalytic site; also a surface site
[3] = molecular target: the molecule itself; test: crystal structure; sitting-drop vapor diffusion at 20 C, 0.1 M MES pH 6.5, 15% PEG550MME; LrL-RhI alone and crystals soaked in 30% (w/v) L-rhamnose, D-allulose or D-allose; space group P212121, four molecules in the asymmetric unit

OC[C@]1(O)OC[C@@H](O)[C@@H](O)[C@H]1O [D-allulose]
X-ray crystal structure of the complex (soaking), 1.73 Å [1]: The bound D-allulose shows a ring-opened structure.

OC[C@H]1OC(O)[C@H](O)[C@H](O)[C@@H]1O (stereo partly drawn) [D-allose]
X-ray crystal structure of the complex (soaking), 1.71 Å [2]: The bound D-allose exhibits a pyranose form and appears to be β-D-allopyranose

B1: L-rhamnose isomerase from Lactobacillus rhamnosus Probio-M9 (enzyme, UniProt A0A171J5T1 1-426, looked up)
chain: MVKPEEVDKAYEVAKQRYAEIGVDTDAAMKELEKVPLSVHCWQGDDIHGFLFPNQELTGGIGVSGNYPGIARTPDELAGDMHEALSLIPGKHRVQLHAIYAVTDKKRDLDTLEPEDFDYWIDWAKQEGVGLDFNGTFFSHPMVKDNMTVSSPDPKVRDFWIRHGKISREISNYIGEKLGSQVVNNFWFPDGFKDNPIDKKTPRLRLLKALDEIIKDPLPEKNTIESFEGKLFGTGIESYTTGSHEFYQNYAISRNKLWTIDAGHFHPTEDVSDKFSAFFPFGKGLFMHVSRPVRWDSDHVVIMDDALIRITRSLVRDGYLDRTHIGLDFFDATINRVAAWVVGARATQKSLLQAMLAPIDQLKKDELNADFTTRLIETEELKSFPFGAVWDKFCQDHNTPVGFDWMNNIHQYEKDVQFKRDAKLVH
notes: L-rhamnose isomerase (putative LrL-RhI) of Lactobacillus rhamnosus Probio-M9, 426 amino acid residues, 48707 Da; also called LrL-RhI; L-RhI; not shown: His-tag, C-terminal, kept
stoichiometry N [3]: 4
